Data published in patent US20250002492A1, “COMPOSITIONS OF FOLATE ABSORPTION INHIBITORS AND METHODS THEREOF” (THE TEXAS A&M UNIVERSITY SYSTEM, priority 2023, published 2025).

Legend:
[1] = molecular target: T1, Folate Uptake Transporter (PCFT) in Caco2 cells (Homo sapiens, UniProt Q96NT5); experiment: Folate uptake transporter inhibition in Caco2 cell line ([3H]-folic acid uptake); format: cell-based; details: for inhibition at 50 µM: Caco-2, pH 5.5, test conc. 50 μM, read-out: Percentage inhibition (%); for effect on folate transport / uptake: Caco-2 cells, 50 μM
T1 construct: These cells express high levels of the PCFT/SLC46A1 receptor; host or cells: Caco-2
T1 sequence (Q96NT5 1-459): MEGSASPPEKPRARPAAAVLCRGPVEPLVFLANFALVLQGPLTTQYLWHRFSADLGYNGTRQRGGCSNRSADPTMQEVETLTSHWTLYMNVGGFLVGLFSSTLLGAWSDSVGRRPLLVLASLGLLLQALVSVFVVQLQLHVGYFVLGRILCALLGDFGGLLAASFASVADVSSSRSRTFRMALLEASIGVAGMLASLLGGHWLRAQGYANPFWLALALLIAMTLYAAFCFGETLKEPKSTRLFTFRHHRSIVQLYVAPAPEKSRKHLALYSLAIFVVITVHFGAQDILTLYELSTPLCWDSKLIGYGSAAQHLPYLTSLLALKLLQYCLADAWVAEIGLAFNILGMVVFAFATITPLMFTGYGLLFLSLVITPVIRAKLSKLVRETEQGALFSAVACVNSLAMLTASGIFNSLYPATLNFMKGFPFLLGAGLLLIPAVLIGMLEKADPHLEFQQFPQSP
Description: Cell plates were prepared using Caco-2 cell culture medium consisting of Dulbecco's Modified Eagle's Medium (DMEM) with high glucose and L-glutamine supplemented with: 10% FBS, 1× penicillin-streptomycin mixture and 1×non-essential amino acids (NEAA) and medium was incubated at 37° C., 5% CO2 for 0.5 hour. Plates were prepared for cell seeding. Caco-2 cells from American Type Culture Collection at passage 44 were cultivated in T-75 flasks in a cell culture incubator set at 37° C., 5% CO2, 95% relative humidity. Cells reached 80-90% confluence before detaching and splitting. Cultivated cells in T-75 flasks were rinsed with 5 mL PBS and aspirated off. Then, 3 mL trypsin/EDTA was added, and cells were incubated at 37° C. for approximately 5 minutes or until the cells detached and floated. Trypsin/EDTA was inactivate by adding excess serum containing medium. Cell suspension was removed and transferred to a conical tube and cells were pelleted by centrifugation at 120×g for 5 minutes. Cells were resuspended in seeding medium at a density of 3×10^4 cells/well in 24-well plates. The plate was incubated for 8-10 days. The medium was replaced every other day, beginning no sooner than 48 hours after initial plating.
(§1) The transport buffer (HBSS with 10 mM MES, pH 5.5) was prepared by weighing 1.952 g of MES and 0.35 g sodium hydrogen carbonate and adding into 900 mL of pure water followed by sonication to dissolve the content. Following the transfer of 100 mL of 10×HBSS into the solution. The solution was placed on a stirrer, the pH was slowly adjusted with hydrochloric acid to 5.5, and then the solution was filtered to get HBSS solution (with 10 mM MES, pH 5.5).
The [3H]-folic acid (10 nM) substrate solution was prepared using [3H]-folic acid (1 mCi/ml) diluted with pH 5.5 buffer. Next, the [3H]-folic acid (10 nM) substrate solution+test inhibitor (X μM) and the [3H]-folic acid (10 nM) substrate solution+positive control inhibitor (pemetrexed, 50 μM) were prepared. For the solution without inhibitor, DMSO was diluted with corresponding substrate solution to get the working incubation solution.
The pre-incubation solution was prepared by adding the same final concentration of test compound (X μM) and the known inhibitor (pemetrexed, 50 μM) in pH 5.5 buffer. For the solution without inhibitor, DMSO diluted with in pH 5.5 buffer was used as the vehicle control.
When the 8-10 day Caco-2 cultured cells reached confluence and were differentiated, they were ready to be used for transport studies. The Caco-2 plate was removed from the incubator, and the medium was removed from the 24-well Plates. Next, cells were washed 3 times with 300 μL of pre-warmed pH 5.5 buffer. Then, 300 μL of pre-incubation solution was added into each well and the plate was placed at 37° C. for 30 minutes. The assay was performed in duplicate. After 30 minutes pre-incubation, the pre-incubation solution was aspirated, and 300 μL of pre-warmed working incubation solution was added to start the transporter assay. After 6 minutes incubation, cells were washed by quickly adding/aspirating 300 μL of ice-cold pH 5.5 buffer 4 times. The pH 5.5 buffer was removed and 300 μL of pure water was added into each well. Freeze-thaw in liquid nitrogen and 37° C. incubator was repeated for 3 times to lyse cells. After, centrifugation at 3,300 g was performed for 30 seconds. Next, 50 μL of supernatant was transferred to Isoplate-96 Microplate. 200 μL of scintillation fluid was added to the 50 μL sample and radioactivity was measured by liquid scintillation counting in a MicroBeta 2 scintillation counter for 1 min/sample.
A BCA Kit was used to determine the protein content for each well. Bovine serum albumin at 2, 1, 0.5, 0.25, 0.125, 0.0625, 0.0313, 0.0156, 0.00781 and 0.00391 mg/mL was prepared in Phosphate Buffer Saline (PBS, pH 7.4). 10 μL of supernatant was mixed from the previous step with the same volume of PBS. […]

[2] = molecular target: T1, Folate Uptake Transporter (PCFT) in Caco2 cells; experiment: Folate uptake transporter substrate assessment in Caco2 cell line (compound uptake with and without pemetrexed); format: in vitro ADME; details: for cell permeability: Caco-2; for Uptake Ratio(−Inhibitor/+Inhibitor): human, Caco-2, 6 min, 1 μM, pH 5.5
Description: Cell Plates were Prepared According to the Methods of Example 8 Using Caco-2 Cells from American Type Culture Collection at Passage 37.
as §1
The test compounds and folic acid (1 μM) substrate solutions were prepared by diluting with pH 5.5 buffer. Next, the test compounds and folic acid (1 μM) substrate solution+positive control inhibitor (pemetrexed, 50 μM) were prepared. For the solution without inhibitor, DMSO was diluted with corresponding substrate solution to get the working incubation solution.
For the solution with inhibitor, the pre-incubation solution was prepared by adding the positive control inhibitor (pemetrexed, 50 μM) in pH 5.5 buffer. For the solution without inhibitor, DMSO was diluted with pH 5.5 buffer and used as the vehicle control.
When the 8-10 day Caco-2 cultured cells reached confluence and were differentiated, they were ready to be used for transport studies. The Caco-2 plate was removed from the incubator, and the medium was removed from the 24-well Plates. Next, cells were washed 3 times with 300 μL of pre-warmed pH 5.5 buffer. Then, 300 μL of pre-incubation solution was added into each well and the plate was placed at 37° C. for 30 minutes. The assay was performed in duplicate. After 30 minutes pre-incubation, the pre-incubation solution was aspirated, and 300 μL of pre-warmed working incubation solution was added to start the transporter assay. After 6 minutes incubation, cells were washed by quickly adding/aspirating 300 μL of ice-cold pH 5.5 buffer 4 times. The pH 5.5 buffer was removed and 300 μL of pure water was added into each well. Freeze-thaw in liquid nitrogen and 37° C. incubator was repeated for 3 times to lyse cells. After, centrifugation at 3,300 g was performed for 30 seconds. Next, 50 μL of supernatant was transferred to 200 μL methanol or acetonitrile containing internal standard and centrifuged at 3,300 g for 30 minutes. 200 μL aliquots of the supernatants were used for LC-MS/MS analysis. Standards were treated the same as samples.
A BCA Kit was used to determine the protein content for each well. Bovine serum albumin at 2, 1, 0.5, 0.25, 0.125, 0.0625, 0.0313, 0.0156, 0.00781 and 0.00391 mg/mL was prepared in Phosphate Buffer Saline (PBS, pH 7.4). 10 μL of supernatant was mixed from the previous step with the same volume of PBS. 20 μL of standard or test sample was added into 96-well clear plate and mixed with 200 μL working reagent. After 30 minutes incubation at 37° C., the absorbance at 562 nm was measured on the microplate reader.
Standard-curves: prepared 200 μM DMSO Folic acid solution, samples of 1000 nm, 300 nm, 100 nm, 30 nM, and 10 nM prepared using a PH 5.5 buffer, and a PH 5.5 buffer containing 50 μM of pemetrexed, respectively.
All calculations were carried out using Microsoft Excel. Peak areas were determined from extracted ion chromatograms. Uptake rate, in unit of pmol/mg protein/min, is calculated using the following equation: Uptake rate=Conc./(Protein×Time); Conc. is concentration of drug in cell lysate (nM), Protein is the protein concentration of cell lysate (mg/mL), and Time is the incubation time (minute). Uptake ratio is calculated using the following equation: Uptake ratio=Uptake rate without inhibitor/Uptake rate with inhibitor. Note: The compound was considered as a potential substrate of a particular transporter when the uptake ratio was greater than 2.

[3] = molecular target: T1, Folate Uptake Transporter (PCFT) in Caco2 cells; experiment: as above; format: in vitro ADME; details: positive control, test conc. 0.01 μM, radiolabelled
[4] = [3H]-folic acid 10 nM, 30 min pre-incubation, 6 min incubation

inhibition at 50 µM [1, 4] [%] | effect on folate transport / uptake ([1]; pH 5.5) | Percentage inhibition (%) ([1]; test conc. 50 μM, [3H]-folic acid 10 nM, pH 5.5, 30 min pre-incubation, 6 min incubation) | cell permeability [2] | Uptake Ratio(−Inhibitor/+Inhibitor) [2] | Uptake Rate (pmol/mg protein/min) ([3]; DMSO (no inhibitor)) | Uptake Ratio(−Inhibitor/+Inhibitor) ([3]; pemetrexed 50 μM) | Uptake Rate (pmol/mg protein/min) ([3]; with pemetrexed 50 μM) | Molecule
25.5 | inhibit folate uptake | 25.25 | highly permeable | 1.02 | – | – | – | Cc1ccc(NC(=O)N2Cc3[nH]cnc3CC2c2nc(-c3ccc4c(c3)OCO4)no2)cc1 (stereo not shown) [MPOL_D_1, 6-(3-(benzo[d][1,3]dioxol-5-yl)-1,2,4-oxadiazol-5-yl)-N-(p-tolyl)-3,4,6,7-tetrahydro-5H-imidazo[4,5-c]pyridine-5-carboxamide]
-18.7 | promoted folate transport | – | highly permeable | 0.86 | – | – | – | Cc1cccc(-c2noc(C3Cc4nc[nH]c4CN3C(=O)Nc3cccc(F)c3)n2)c1 (stereo not shown) [MPOL_D_2, N-(3-fluorophenyl)-6-(3-(m-tolyl)-1,2,4-oxadiazol-5-yl)-3,4,6,7-tetrahydro-5H-imidazo[4,5-c]pyridine-5-carboxamide]
62.4 | – | – | – | – | – | – | – | Nc1nc2[nH]cc(CCc3ccc(C(=O)N[C@@H](CCC(=O)O)C(=O)O)cc3)c2c(=O)[nH]1 [Pemetrexed, reference compound]
– | – | – | – | – | 0.02 | 2.66 | 0.01 | Folic acid [3,5,7,9-3H] sodium salt
